Laboratory results reported in US10071976B2, “Small molecule fatty acid synthase inhibitors” (Sanford Burnham Prebys Medical Discovery Institute, priority 2014, dated 2018).
Values joined by “and” are separate entries in the source; they are usually repeats but may differ in a detail not shown here. Identical values can stand only once. Like-named read-outs stand apart in the source and are kept apart here.

Assays:
[1] = Chemical stability in 1x PBS; assay type: physicochemical
[2] = Hepatic microsome stability, human; assay type: in vitro ADME
Text: (§1) The microsomal stability assay is commonly used to rank compounds according to their metabolic stability. This assay addresses the pharmacologic question of how long the parent compound will remain circulating in plasma within the body.

FASN-TE = FASN-TE (Homo sapiens, UniProt P49327); experiment: In-vitro biochemical assay measuring FAS-TE inhibition (OMFH substrate, fluorescence)
[3] = system: other serine hydrolases in the lysate; experiment: Competition with activity-based probe FP-PEG-TAMRA in PC-3 whole cell lysate: other serine hydrolases; assay type: binding, human; conditions: PC-3 lysate, 20 μM final, pH 7.8
Experimental: Studies were conducted to determine the selectivity of compound 16 for FASN over other human thioesterases. The ability of the compounds to bind the FASN holoenzyme was tested by assessing their ability to compete for the binding of an activity-based probe that covalently attaches to the active site of the FASN thioesterase. Thioesterases are members of the serine hydrolase family, which also includes a number of other types of enzymes including proteases, dipeptidyl peptidases, epoxide hydrolases, etc. To help assess the selectivity of compound 16, an activity-based probe polyethyleneglycol-6-carboxytetramethyl-rhodamine (FP-PEG-TAMRA) that binds covalently to the catalytic serine of all serine hydrolases was used. These studies were done by assessing the ability of compound 16 to compete for the binding of the activity-based probe in whole cell lysates. Several analogs of compound 16 were tested in this assay using lysates of the prostate tumor line (PC3), which expresses FASN, along with numerous other serine hydrolases. The PC-3 lysate was incubated with 8 different FASN inhibitors, including compounds 1, 16 and 97. Then the activity-based probe (FP-PEG-TAMRA) was added to each sample to label the serine hydrolases in the lysate.

[4] = system: prostate cancer PC-3 cells; experiment: De novo palmitate synthesis from 13C-glucose in whole cells (GC-MS); assay type: cell-based
Experimental: The ability of compounds to block biosynthesis of palmitate in whole cells (prostate cancer PC-3 cells) was measured by feeding cells isotopically labeled glucose (^13C-glucose) and measuring the incorporation of ^13C into palmitate by GC-MS.
Prostate cancer PC-3 cell were incubated with 20 μM of FASN inhibitors and labeled with [U-13C]-glucose for 24 h, pH 7.8. The incorporation of ^13C into palmitate from labeled glucose was determined by extracting fatty acids and resolving them by GC-MS. The mass distributions for fatty acid methyl esters for C16:0 (palmitate) were corrected for isotope natural abundance, and the corrected isotope patterns were used to calculate the labeling of acetyl-CoA in palmitate based on a binomial probability distribution of the incorporation of labeled acetyl units into the fatty acid chain.

[5] = Aqueous solubility in 1x PBS, pH 7.4; assay type: physicochemical; conditions: pH 7.4, aqueous buffer
[6] = Hepatic microsome stability, mouse; assay type: in vitro ADME
Text: as §1

Plasma stability, mouse = assay type: in vitro ADME
Text: Plasma stability is a measure of the stability of small molecules and peptides in plasma and is an important parameter, which can strongly influence the in vivo efficacy of a test compound. Drug candidates are exposed to enzymatic processes (proteinases, esterases) in plasma, and they can undergo intramolecular rearrangement or bind irreversibly (covalently) to proteins.

PAMPA permeability = assay type: in vitro ADME; conditions: for Papp: PAMPA, read-out: PAMPA Permeability, Pe
Experimental: The PAMPA (Parallel Artificial Membrane Permeability Assay) assay was used as an in vitro model of passive, transcellular permeability. An artificial membrane immobilized on a filter was placed between a donor and acceptor compartment. At the start of the test, drug was introduced in the donor compartment. Following the permeation period, the concentration of drug in the donor and acceptor compartments was measured using UV spectroscopy.

in vitro = conditions: human
[7] = Plasma protein binding, human; assay type: in vitro ADME
Text: Plasma protein binding was a measure of a drug's efficiency to bind to the proteins within blood plasma. The less bound a drug is, the more efficiently it can traverse cell membranes or diffuse. […] In contrast, drugs that remain largely unbound in plasma are generally available for distribution to other organs and tissues.

FASN thioesterase = target: T1, FASN thioesterase (Homo sapiens, UniProt P49327); experiment: FP-PEG-TAMRA labeling of recombinant FASN thioesterase; assay type: binding; conditions: recombinant enzyme, 20 μM final, pH 7.8
T1 construct: label the active site of the FASN thioesterase and ACOT4
Experimental: Additionally, studies were performed to test the selectivity of Compounds 1, 16, 22, and 37 for the FASN thioesterase over its most closely related human homolog, the enzyme called ACOT4 (see FIG. 3). Both proteins were mixed and pretreated with the compound (20 μM final, pH 7.8) before addition of the fluorescent activity probe FP-PEG-TAMRA. Respective fluorescence of the bands was detected on a Hitachi flatbed scanner and a greyscale version used for quantitative analysis using ImageJ. Recombinant forms of each enzyme were incubated with compound 16, compound 1, compound 37, and compound 22. FP-TAMRA was included in this mixture to label the active site of the FASN thioesterase and ACOT4. […] These findings further attest to the high degree of selectivity of compounds 1, 16, 37 and 22 for the FASN thioesterase.

FASN-TE, sequence (P49327 2207-2511 limits assumed): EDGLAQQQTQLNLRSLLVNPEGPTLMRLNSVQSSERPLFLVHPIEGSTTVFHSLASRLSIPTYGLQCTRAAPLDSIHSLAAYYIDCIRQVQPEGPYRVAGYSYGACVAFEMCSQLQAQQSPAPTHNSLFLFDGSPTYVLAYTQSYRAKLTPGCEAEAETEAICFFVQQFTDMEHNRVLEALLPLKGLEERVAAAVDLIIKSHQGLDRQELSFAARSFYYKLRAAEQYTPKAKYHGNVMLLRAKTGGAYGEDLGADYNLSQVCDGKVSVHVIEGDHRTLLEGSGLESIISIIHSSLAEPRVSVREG
T1 sequence (P49327 2207-2511 limits assumed): as above

SMILES: CCC(CC)C(=O)Nc1nc(-c2ccc(S(=O)(=O)N3CCOCC3)cc2)cs1 [Compound 16, 2-Ethyl-N-(4-(4-(morpholinosulfonyl)phenyl)thiazol-2-yl)butanamide]
- Chemical Stability in 1x PBS pH 7.4 (% remaining after 48 hrs) ([1]; 1x PBS pH 7.4, 48 hrs): 100/100%
- Chemical Stability in 1x PBS pH 7.4 with 50% ACN (% remaining after 48 hrs) ([1]; with 50% ACN, 48 hrs): 100/100%
- Hepatic Microsome Stability (% Remaining at 1 hr) ([2]; Human, 1 hr): 4.93%
- liver microsome stability ([2]; human liver microsomes): poor stability
- IC50 (FASN-TE): 334 nM
- competition for activity based labeling of other serine hydrolases [3]: no competition
- inhibition of palmitate synthesis in whole cells [4]: inhibitory activity
- de novo palmitate synthesis/DMSO (%) ([4]; 20 μM, [U-13C]-glucose 24 h, pH 7.8, relative to DMSO control): 50%
- solubility [5]: 0.02 µg/mL and 0.05 µM
- Hepatic Microsome Stability (% Remaining at 1 hr) ([6]; Mouse, 1 hr): 6.37%
- liver microsome stability ([6]; mouse liver microsomes): poor stability
- Plasma Stability (% Remaining at 3 hrs) (Plasma stability, mouse; Mouse, 3 hrs): 100/100%
- plasma stability (Plasma stability, mouse; mouse plasma): good stability
- Papp (PAMPA permeability; Donor pH 5.0, Acceptor pH 7.4): 914 ×10⁻⁶ cm/s
- Papp (PAMPA permeability; Donor pH 6.2, Acceptor pH 7.4): 961 ×10⁻⁶ cm/s
- Papp (PAMPA permeability; pH 7.4, Donor pH 7.4, Acceptor pH 7.4): 653 ×10⁻⁶ cm/s
- PAMPA permeability (PAMPA permeability; across a range of pH of the donor compartment): very good permeability
- CC50 (in vitro): > 50000 nM
- fraction unbound at 1 μM ([7]; plasma, Human, 1 μM, read-out: Plasma Protein Binding (% Bound) (converted)): 0.034
- fraction unbound at 10 μM ([7]; plasma, Human, 10 μM, read-out: Plasma Protein Binding (% Bound) (converted)): 0.0253
- plasma protein binding ([7]; species not given): highly plasma protein bound
- binding of FP-TAMRA to the active site of the FASN thioesterase (FASN thioesterase): blocked the binding of FP-TAMRA
